Experiment: gradient 5% acetonitrile 3 min, to 50% in 2 min, to 85% in 15 min, held 3 min, 100 µL/min
Settings: column: Zorbax Extend-C18 2.1 x 50 mm; eluents: water / acetonitrile, 0.1% formic acid
Method in brief: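 A Zorbax Extend-C18 column (2.1 × 50 mm, 1.8 μm) run at 100 μL/min with water and acetonitrile, both containing 0.1% formic acid, separated mixtures of ~100 pure standards. The HPLC was coupled to a quadrupole time-of-flight mass spectrometer operated in positive and negative ionization mode, with dead and dwell volumes of 40 μL and 900 μL. Each retention time was taken from a computationally picked adduct peak that was then manually inspected.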

SMILES	RP-LC retention time [s]
CCOC(=O)C1CCN(c2cc3c(cc2NC(=O)CC(C)C)n(C)c(=O)c(=O)n3C)CC1	822
CS(=O)(=O)c1ccc(-c2cccc(NS(=O)(=O)c3ccc4c(c3)CCCC4)c2)nn1	855
COCCN(CC(=O)N1CCc2sccc2C1COc1ccc(Cl)cc1)C(=O)COC (centres undefined)	839
CC(C)c1ccc(S(=O)(=O)c2cnc(N3CCC(C(N)=O)(N4CCCCC4)CC3)nc2N)cc1	677
O=C(Cn1cccc(-c2nc(-c3ccccc3)no2)c1=O)Nc1ccccc1Cl	885
CCN1C(=O)c2cccnc2Sc2cc(NC(=O)c3ccc4c(c3)OCO4)ccc21	802
O=C(Nc1cnc(N2CCCCC2)nc1)c1ccc(Br)o1	927
Cc1nnc2cc(N3CCN(Cc4cn[nH]c4-c4ccccc4)CC3)cnn12	556
COCCN1C(=O)Cc2ccccc2C1C(=O)NCc1ccccc1F (centres undefined)	732
COC1CN(c2cccc(F)c2)C12CCN(Cc1ccc(C)o1)CC2 (centres undefined)	745
CCn1ccc(C(=O)N2CCC(c3nc(-c4ccncc4)no3)C2)n1 (centres undefined)	640
COC(=O)c1cc2c(=O)n(Cc3ccc(OC)c(OC)c3)ccc2nc1C	760
Cc1oc(-c2[nH]ncc2C(=O)N2CCOCC2)cc1S(=O)(=O)NC1CC1	607
O=C(Nc1ccc(F)cc1)NC1CCN(c2ccc(F)cc2)C1=O (centres undefined)	783
Cn1nnc2c(Nc3ccc(Br)cc3F)ncnc21	761
CCNC(=O)c1nnn(-c2cc(C(F)(F)F)ccc2Cl)c1-c1cccnc1	796
Cn1nc2n(c1=O)CCN(C(=O)C1CC=CCC1)CC2 (centres undefined)	624
CCCNS(=O)(=O)c1cc(-c2c(CC)noc2NC(C)=O)ccc1OC	774
COc1ccc(C)cc1NC(=O)N1CCC(c2nc3ccncc3n2CC(C)C)C1 (centres undefined)	586
O=C(Nc1ccccc1Cl)N1CCC(N2CC(F)(F)C[C@H]2COCC2CC2)CC1	720
Cc1ccc(-c2noc(CN3C(=O)COc4ccc(Cl)cc43)n2)cc1	1150
CCOc1ccc(C(=O)NC(C(=O)Nc2nc3ccccc3[nH]2)C(C)CC)cc1 (centres undefined)	750

SMILES	RP-LC retention time [s]
Cn1nccc1C(=O)Nc1ccc(OCc2nnc(-c3ccc(Cl)cc3)o2)cc1	864
COc1cccc(-c2csc(-c3nnn(-c4cccc(OC)c4)c3N)n2)c1	1110
CN1C(=O)COc2cc(-c3noc(C(=O)N4CCCCC4)n3)ccc21	841
CCCc1c(C(=O)O)nnn1-c1ccccc1F	705
CN(CCNC(=O)c1cc(=O)n(C)c2c1c(=O)n(C)c(=O)n2C)C1CCCCC1	624
COc1ccc(-c2nc3c(s2)CN(C(=O)Nc2ccccc2OC)CC3)cc1	943
Cc1cc(C(=O)N2CCCCC2)c2c(=O)n(CC(=O)Nc3cccc(C#N)c3)c(=O)n(C)c2n1	791
COC(=O)c1cccc(Nc2c(-c3cccc(O)c3)nc3cnccn23)c1	696
CCOC(=O)c1ccc(NC(=O)C2=C(C)C(=O)OC23CCN(C(C)C)CC3)cc1	657
O=S(=O)(c1ccccc1Cl)N1CCN(c2ccc3nnc(-c4ccco4)n3n2)CC1	726
CNC(=O)c1ccc(-c2nc3cc(NS(=O)(=O)c4ccc(Br)cc4)ccc3n2C)cc1	673
CCCC[C@H]1C(=O)O[C@H](C)[C@H](NC(=O)c2cccc(NC=O)c2OC)C(=O)O[C@@H](C)[C@@H]1OC(=O)CC(C)C	1190
CCCNC(=O)N1CCC2(CC1)Nc1cc(F)ccc1-n1cccc12	888
Cc1cc(C(=O)NCC(C)C)c2cc(F)ccc2n1	698
O=C(Nc1ccc2c(c1)OCO2)C1CCCN(c2nnc3ccc(Cl)cn23)C1 (centres undefined)	747
Cn1c(N2CCCC(C(=O)NCc3ccc4c(c3)OCO4)C2)cc(=O)n(C)c1=O (centres undefined)	671
CCCN1C(=O)COc2ccc(-c3csc(NC(=O)c4ccc(C)cc4)n3)cc21	1080
O=C(Nc1nnc(C2CC(=O)N(c3ccc(F)cc3)C2)o1)c1ccccc1Cl (centres undefined)	712
COc1cccc(Cn2nnc(C(=O)O)c2C(C)C)c1	694
O=C(CCS(=O)(=O)c1ccccc1)NCCOc1ccc(-c2ccc(F)cc2)nn1	715
COc1ccc(C(=O)N2CCN3CCS(=O)(=O)N(C4CC4)C(=O)C3C2)cc1 (centres undefined)	715
Cc1cc(C)n(-c2nc(CC(=O)Nc3nc(-c4ccccc4)cs3)cs2)n1	1120

From the METLIN SMRT retention time set (Domingo-Almenara et al. 2019)
